In one data set the target is T1, HHAT (Homo sapiens, UniProt Q5VTY9).
T1 construct: FLAG (C); His (C); made in house; host or cells: HEK293a cells stably overexpressing HHAT-FLAG-His
The experiment in a line: Pilot HTS Acyl-cLIP screen of FDA-approved drugs, purified HHAT, stopped-assay conditions. Conditions: compounds screened at 25 μM. It is filed as biochemical.

Data set [1] concerns SHH acylation in HEK-293 SHH+ cells. Briefly: In-cell YnC15 tagging assay of SHH acylation. Format: cell-based, human. Conditions: inhibitors 20 µM, YnC15, AzTB ligation; for inhibition of SHH acylation (YnC15 tagging) by in-gel fluorescence: IGF; for inhibition of SHH acylation assessed by increased molecular weight in anti-SHH blotting: α-SHH western blot. The method, then:
In-Cell YnC15 Tagging Assay
HEK293a SHH+ cells (500,000 cells/well) were plated in a 6-well plate in DMEM/FBS (3 mL/well) and cultured for 24 h. Cells were treated with inhibitors in DMSO (20 µM), two RUSKI-201 (20 µM) blind-positive controls and two DMSO (7.5 µL) blind-negative controls.
After 1 h, YnC15 (3 µL, 20 mM in DMSO) was added and cells cultured for a further 6 h before washing with PBS. Cells were lysed in PBS with Triton X-100 (1%), SDS (0.1% (w/v)) and Complete EDTA-free protease inhibitor cocktail (Roche Diagnostics). Cells were removed from plates by scraping, and lysates centrifuged (13,000 g, 10 min, 4 °C). The protein concentration of the supernatant was estimated using the DC Protein Assay (Bio-Rad) and adjusted to 1 mg/mL with lysis buffer. AzTB (1 µL, 10 mM in DMSO), CuSO4 (2 µL, 50 mM in H2O), TCEP (2 µL, 50 mM in H2O) and TBTA (1 µL, 10 mM in DMSO) were combined, and this mixture (6 µL) added to the lysate (100 µL). Samples were shaken at RT for 1 h, then proteins precipitated by addition of methanol (200 µL), chloroform (50 µL) and water (100 µL) followed by centrifugation (13,000 g, 5 min, 4 °C). The upper aqueous layer was removed without disturbing the protein layer at the interphase, methanol (0.5 mL) was added, and the precipitated proteins isolated by centrifugation (13,000 g, 10 min, 4 °C). Protein pellets were […]
(§1) washed twice with methanol, briefly air-dried and re-dissolved in PBS containing SDS (0.2% (w/v)) and DTT (0.1 mM) using sonication to a final concentration of 1 mg/mL.
(§2) 10 µg of protein were separated on a 15% SDS-polyacrylamide gel. Fluorescence was recorded using a Typhoon imager (GE Healthcare; excitation laser: 532 nm, emission filter:
(§3) Proteins were transferred to a nitrocellulose membrane by wet transfer (100 V, 1 h), and membranes blocked with BSA (5% (w/v)) in TBS-T (50 mM TRIS, 150 mM NaCl, 0.1% Tween-20, pH 7.5) for 1 h at RT, followed by overnight incubation at 4°C with rabbit α-SHH (Santa Cruz Biotechnology; sc-9024; 1:200) in TBS-T with BSA (0.5% (w/v)) or mouse α-Tubulin (Santa Cruz Biotechnology; sc-8035; 1:200) in TBS-T with BSA (0.5% (w/v)). Membranes were washed with TBS-T (4 × 5 min) and incubated at RT for 1 h with HRP-conjugated Goat-α-mouse IgG (Advansta; 1:10,000) in TBS-T with BSA (0.5% (w/v)) or Goat-α-rabbit IgG (Advansta; 1:10,000) in TBS-T with BSA (0.5% (w/v)). Membranes were washed with TBS-T (4 × 5 min) and developed with Luminata Crescendo Western HRP substrate (Millipore) on a Fujifilm LAS-3000 imager. YnC15-labelled SHH band intensities were quantified using ImageJ 1.50i (National Institute of Health, USA).
HEK293a SHH+ cells (5,000 cells/well) were plated in a 96-well plate in DMEM/FBS […]
(50 µL/well) and cultured for 24 h. […]
On the technique in general: In western blotting, separated proteins are transferred to a membrane and probed.

The next data set deals with SHH-Light2 cells. Briefly: Constitutive Renilla luciferase control for cellular viability in SHH-Light2 assay. Format: cell-based. The method, then:
(§4) SHH-Light2 Signalling Assay
(§5) HEK293a SHH+ cells (120,000 cells/well) were plated in a 12-well cell culture treated plate (Nunc) in DMEM/FBS (1 mL/well) and cultured for 24 h. Cells were washed with PBS, followed by the addition of DMEM/FBS (1 mL) containing DMSO (0.2%) or varying inhibitor concentrations in DMSO (0.041-30 µM). SHH-Light2 cells (20,000 cells/well) were plated in a 96-well plate in DMEM/FCS (50 µL/well). After 24 h, conditioned medium (300 µL) was removed from each well of the HEK293a SHH+ cells, centrifuged (1,000 g, 10 min), and added to three wells of SHH-Light2 cells (100 µL/well, 150 µL final volume). SHH-Light2 cells were cultured for a further 48 h, and washed with PBS prior to analysis. Firefly and Renilla luciferase activity was recorded using the Dual-Luciferase reporter system (Promega Corporation, USA).
(§6) Passive lysis buffer (20 µL) was added to each well and cells incubated for 30 min at RT. The lysate (5 µL) was transferred to a white opaque 96-well plate (Corning, 3362). Luciferase Assay Reagent II (20 µL/well) was added and the luminescence immediately recorded using a SpectraMax i3x spectrophotometer (Molecular Devices LLC). Stop&Glo (1x) substrate in Stop&Glo buffer (20 µL/well) was added and the luminescence immediately recorded. […]

In data set [2] the test system is HH signalling in SHH-Light2 cells. The experiment in a line: SHH-Light2 signalling assay (Firefly luciferase). It is filed as cell-based. Conditions: inhibitors 0.041-30 µM. The protocol: as §4, §5, §6
For another data set, the system named is HEK-293 SHH+ cells. Briefly: MTS viability assay. Particulars: 72 h, inhibitors 0.14-100 µM. Format: cell-based, human. The protocol:
as §1, §2
as §3, with “Membranes were washed with TBS-T (4 × 5 min) and developed with Luminata Crescendo Western HRP substrate (Millipore) on a Fujifilm LAS-3000 imager.” left out
HEK293a SHH+ cells (5,000 cells/well) were plated in a 96-well plate in DMEM/FBS (50 µL/well) and cultured for 24 h. […] The absorption at 490 nm was recorded using an EnVision Xcite 2104 and responses normalised to vehicle control and background corrected to Puromycin-treated samples.

Data set [3] in a line: Detergent/BSA titration for polarised emission of Pal-SHH-FAM (fluorescence anisotropy). Conditions: titration with Pal-SHH-FAM; read-out: detergent concentration required for half-maximal polarised signal (EC50).
Description: Fluorescence measurements were recorded on an EnVision Xcite 2104 (PerkinElmer).
FAM-labelled peptides were measured using a FITC FP D505fp mirror module, FITC FP 480 nm excitation filter (30 nm bandwidth), FITC FP P-pol 535 nm first emission filter (40 nm bandwidth), and FITC FP S-pol 535 nm second emission filter (40 nm bandwidth). Continuous reaction monitoring was conducted using measurement height = 9.52 mm, 8 flashes/well, PMT gain = 319, and G-factor = 1.09.
TAMRA-labelled peptides were measured using a BODIPY TMR FP D555fp mirror module, BODIPY TMR FP 531 nm excitation filter (25 nm bandwidth), BODIPY TMR FP P-pol 579 nm first emission filter (25 nm bandwidth), and BODIPY TMR FP S-pol 579 nm second emission filter (25 nm bandwidth). Continuous reaction monitoring was conducted using measurement height = 6.5 mm, 200 flashes/well, PMT gain = 255, and G-factor = 1.6.
Detergents (2 mM) or BSA (0.15 mM) were tested for generation of polarised fluorescence from Pal-SHH-FAM or SHH-FAM (0.1 µM) in 100 mM MES, 20 mM NaCl. Detergent and BSA titrations were performed using 2-fold serial dilutions.
The conditions of data set [4]: cited from earlier work.
The next data set deals with BSA. The arrangement: method as in PMID 11964183. Particulars: read-out: Kd of BSA for palmitic acid; cited from earlier work.

pEC50, pKd: −log10 of the molar value. Counter-ions that a name gives are not always drawn.

T1 sequence (Q5VTY9 whole entry): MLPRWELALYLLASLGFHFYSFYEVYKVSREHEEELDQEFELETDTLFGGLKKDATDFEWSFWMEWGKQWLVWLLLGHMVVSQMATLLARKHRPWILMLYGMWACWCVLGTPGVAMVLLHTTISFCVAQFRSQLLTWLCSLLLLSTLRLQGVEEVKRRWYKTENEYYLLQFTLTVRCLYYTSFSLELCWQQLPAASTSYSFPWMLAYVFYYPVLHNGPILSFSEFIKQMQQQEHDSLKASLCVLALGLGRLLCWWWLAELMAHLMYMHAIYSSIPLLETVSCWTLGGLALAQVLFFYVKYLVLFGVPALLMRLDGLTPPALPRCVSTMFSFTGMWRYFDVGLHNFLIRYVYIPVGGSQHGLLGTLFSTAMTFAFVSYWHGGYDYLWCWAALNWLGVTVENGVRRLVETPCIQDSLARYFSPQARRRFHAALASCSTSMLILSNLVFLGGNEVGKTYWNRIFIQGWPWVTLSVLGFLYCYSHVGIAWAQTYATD

As a reminder, the inhibition is the drop in the measured response relative to a control, in per cent. Low values mean little suppression, high ones strong suppression. Consider `CC(C)C[C@H]1C(=O)N2CCC[C@H]2[C@]2(O)O[C@](NC(=O)[C@@H]3C=C4c5cccc6[nH]c(Br)c(c56)C[C@H]4N(C)C3)(C(C)C)C(=O)N12` [Bromocriptine Mesylate], for which the inhibition at 25 µM at HHAT was > 80%. The “inhibition of SHH acylation (YnC15 tagging) by in-gel fluorescence” value in data set [1] (listed as Bromocriptine) was “inhibition”; in data set [1] (listed as bromocriptine), “showed inhibition of SHH acylation”. Also, in data set [1], the “inhibition of SHH acylation assessed by increased molecular weight in anti-SHH blotting” value is listed as “did not show inhibition of SHH acylation”. Further, in the data set with SHH-Light2 cells, the “cytotoxicity in SHH-Light2 signalling assay” value is “general cytotoxicity”.
For `CN(C)CCCN1c2ccccc2CCc2ccc(Cl)cc21` [Clomipramine·HCl], the entries for the “inhibition of SHH acylation (YnC15 tagging) by in-gel fluorescence” value in data set [1] (listed as Clomipramine) and in data set [1] (listed as clomipramine) were “inhibition” and “showed inhibition of SHH acylation”, respectively. Besides, the “inhibition of SHH acylation assessed by increased molecular weight in anti-SHH blotting” value in data set [1] was “did not show inhibition of SHH acylation”. Moreover, the entries for the “concentration at which HH signalling is inhibited” value in data set [2] (listed as Clomipramine) and in data set [2] (listed as clomipramine) were 30 µM and > 30 µM, respectively. The “viability in MTS assay” value with HEK-293 SHH+ cells (listed as Clomipramine) is “cytotoxicity”; with HEK-293 SHH+ cells (listed as clomipramine) it was “decreased viability at high concentrations”.
`CCCCCCCCCCCCO[C@@H]1O[C@H](CO)[C@@H](O[C@H]2O[C@H](CO)[C@@H](O)[C@H](O)[C@H]2O)[C@H](O)[C@H]1O` [DDM, n-dodecyl β-D-maltoside]: in data set [3], the pEC50 is 3.82. The “critical micelle concentration (CMC)” value in data set [4] was 170 µM.
The term pKd denotes the Kd on a negative log10 scale, so that one unit is a factor of ten. With `CCCCCCCCCCCCCCCC(=O)O` [palmitic acid], the pKd on BSA was 6.98.
As for Triton™ X-100 [TX-100], in data set [3], the pEC50 was 3.74. Also, in data set [4], the “critical micelle concentration (CMC)” value was 200 µM.

(Values after PMC6855259, “Acylation-coupled lipophilic induction of polarisation (Acyl-cLIP): a universal assay for lipid transferase and hydrolase enzymes” (Chemical Science, 2019).)
